{
  "source": "patent US10046082B2",
  "about": "“Collagen sponge containing a drug for promoting fracture healing and method for preparing the same” (WUHAN VSD MEDICAL SCIENCE & TECHNOLOGY CO., LTD., priority 2015, dated 2018)",
  "key": {"[1]": {"system": "fracture sites", "experiment": "Callus cross-sectional area in rabbit fracture healing experiment", "type": "in vivo, New Zealand rabbits", "conditions": "sponge placed at fracture site (IB group: 0.1 mg/kg IB after surgery), n=5", "experimental": "(§1) 1.1. Experimental Animal: New Zealand rabbits, each being male and having a weight of about 2 to 3 kg (12 to 16 weeks old) were used\n(§2) 1.2. Experimental Grouping and Materials: experiments were divided into a control group (Control), a collagen sponge (CS) group, an ibandronate sodium (0.1 mg/kg IB) group, a group with a small dosage of ibandronate sodium+collagen sponge (SIB+CS, 0.125 mg IB), a group with a median dosage of ibandronte sodium+collagen sponge (MIB+CS, 0.25 mg IB), and a group with a large dosage of ibandronate sodium+collagen sponge (LIB+CS, 0.5 mg IB), in total 6 groups. 10 experimental animals are used for each group, […].\n(§3) Preparation of materials for the SIB+CS group: 125 μl of 1 mg/ml IB was added into 600 ml of the enzymolysis solution of collagen to prepare a 50*25*5 mm collagen sponge;\n(§4) Preparation of materials for the MIB+CS group: 250 μl of 1 mg/ml IB was added into 600 ml of the enzymolysis solution of collagen to prepare a 50*25*5 mm collagen sponge;\n(§5) Preparation of materials for the LIB+CS group: 500 μl of 1 mg/ml IB was added into 600 ml of the enzymolysis solution of collagen to prepare a 50*25*5 mm collagen sponge.\nMale New Zealand rabbits were anesthetized by marginal ear vein injection with sodium pentobarbital (3%, […]). After the anesthesia, the skin in the surgical area was depilated with 8% sodium sulfide and disinfected. […]"}, "[2]": {"system": "tibia fracture sites of the rabbits", "experiment": "Three-point bending force test at fracture sites of the rabbits", "type": "in vivo, New Zealand rabbits", "conditions": "n=5", "experimental": "as §1, §2, §3, §4, §5\nMale New Zealand rabbits were anesthetized by marginal ear vein injection with sodium pentobarbital (3%, […]). After the anesthesia, the skin in the surgical area was depilated with 8% sodium sulfide and disinfected. The animals were fixed on their backs, and disinfected and covered with a sterile towel or sheet. A longitudinal incision was cut at the distal femur of the right leg near the patella. The patella was retracted to expose the inner and outer condyles of the distal femur. A 2 mm Kirschner wire was inserted retrogradely between the inner and outer condyles through an electric drill. The Kirschner wire went through the medullary cavity and came out of the skin from the proximal femur. The distal end of the Kirschner wire was cut off and ensured to be embedded under the surface of the knee joint. The knee was reset. An incision was made on the outer side of the distal femur, and the femur was exposed along the intermuscular space. Sufficient protection was provided for the surrounding soft tissues such as muscles and blood vessels. The femur was cut by a dental drill. The Control group and the IB group were not subjected to any treatment. The prepared materials for the CS group, the SIB+CS group, the MIB+CS group and the LIB+CS group were placed at the fracture sites of the animals, respectively. The incisions and the skin were washed with sterile normal saline and sutured with 5-0 nylon thread. Normal saline (0.1 ml/kg) and ibandronate sodium (0.1 ml/kg) were administered to the Control group and the IB group after surgery, respectively. All the animals were injected intramuscularly with buprenorphine (0.05 mg/kg) twice and with ciprofloxacin (10 mg/kg) once a day for 3 days after the surgery. All the animals were fed normally (lightless, quiet, at a temperature from 20 to 26° C., and at a humidity below 80%). X-ray photographs were taken on the day of surgery to check the condition of fracture apposition and alignment after the surgery. Further, half of the New Zealand rabbits were sacrificed at the 2nd week and the 4th week for detection, respectively.\n3.2. Three-point bending force test at tibia fracture sites of the rabbits at the second week and the fourth week"}},
  "note": "Marks after values point to notes of the source that are not given here.",
  "data": [
    {"smiles": "CCCCCN(C)CCC(O)(P(=O)(O)O)P(=O)(O)O", "note": "[IB, ibandronate sodium]", "values": [
      {"measurement": "callus cross-sectional area (CSA)", "setting": "[1]; 2nd week after surgery", "result": "89.9 ± 3.6^a,h,i,j,k mm^2"},
      {"measurement": "callus cross-sectional area (CSA)", "setting": "[1]; 4th week after surgery", "result": "120.5 ± 7.8^a,h,i,j,k mm^2"},
      {"measurement": "Compressive Strength", "setting": "[2]; 2nd week", "result": "4.7 ± 1.8", "unit": "Nmm"},
      {"measurement": "Elastic Modulus", "setting": "[2]; 2nd week", "result": "7.3 ± 2.2", "unit": "MPa"},
      {"measurement": "Limit Load", "setting": "[2]; 2nd week", "result": "6.8 ± 1.7", "unit": "N"},
      {"measurement": "Compressive Strength", "setting": "[2]; 4th week", "result": "64.6 ± 7.3^j Nmm"},
      {"measurement": "Elastic Modulus", "setting": "[2]; 4th week", "result": "88.2 ± 19.5", "unit": "MPa"},
      {"measurement": "Limit Load", "setting": "[2]; 4th week", "result": "95.9 ± 7.04^i,j N"}
    ]}
  ]
}
